Experimental data as given in ChEMBL document CHEMBL5465560, “Selectivity Literature for EUbOPEN Chemogenomic Library” (2024).
Values belong to the compound of their own block, whether it stands above or below them.

How the values were obtained:
[1] = molecular target: Vascular endothelial growth factor receptor 1 (Homo sapiens) (UniProt P17948); assay: Selectivity interaction (KinomeScan (DiscoverX)) EUB0000699a FLT1; details: at 10 µM
[2] = molecular target: Bromodomain-containing protein 4 (Homo sapiens, UniProt O60885); assay: Selectivity interaction (Kinase panel (DSF assay)) EUB0001559a BRD4
[3] = molecular target: Mitogen-activated protein kinase 1 (Homo sapiens, UniProt P28482); assay: Selectivity interaction (KinomeScan (DiscoverX)) EUB0000655a MAPK1; details: at 10 µM
[4] = molecular target: Mitogen-activated protein kinase 8 (Homo sapiens, UniProt P45983); assay: Selectivity interaction (KinomeScan (DiscoverX)) EUB0000618a MAPK8; details: at 10 µM
[5] = molecular target: Tyrosine-protein kinase Lyn (Homo sapiens, UniProt P07948); assay: Selectivity interaction (ActivX KiNativ screen (ex vivo kinase selectivity in human PBMCs)) EUB0001619a LYN; type: cell-based; details: PBMC, at 1 µM
[6] = molecular target: Glycogen synthase kinase-3 beta (Homo sapiens, UniProt P49841); assay: Selectivity interaction (Kinase panel (DSF assay)) EUB0001558a GSK3B
[7] = molecular target: RAF proto-oncogene serine/threonine-protein kinase (Homo sapiens) (UniProt P04049); assay: Selectivity interaction (KinomeScan (DiscoverX)) EUB0000045b RAF1
Sequence of RAF proto-oncogene serine/threonine-protein kinase (Homo sapiens) (P04049 whole entry): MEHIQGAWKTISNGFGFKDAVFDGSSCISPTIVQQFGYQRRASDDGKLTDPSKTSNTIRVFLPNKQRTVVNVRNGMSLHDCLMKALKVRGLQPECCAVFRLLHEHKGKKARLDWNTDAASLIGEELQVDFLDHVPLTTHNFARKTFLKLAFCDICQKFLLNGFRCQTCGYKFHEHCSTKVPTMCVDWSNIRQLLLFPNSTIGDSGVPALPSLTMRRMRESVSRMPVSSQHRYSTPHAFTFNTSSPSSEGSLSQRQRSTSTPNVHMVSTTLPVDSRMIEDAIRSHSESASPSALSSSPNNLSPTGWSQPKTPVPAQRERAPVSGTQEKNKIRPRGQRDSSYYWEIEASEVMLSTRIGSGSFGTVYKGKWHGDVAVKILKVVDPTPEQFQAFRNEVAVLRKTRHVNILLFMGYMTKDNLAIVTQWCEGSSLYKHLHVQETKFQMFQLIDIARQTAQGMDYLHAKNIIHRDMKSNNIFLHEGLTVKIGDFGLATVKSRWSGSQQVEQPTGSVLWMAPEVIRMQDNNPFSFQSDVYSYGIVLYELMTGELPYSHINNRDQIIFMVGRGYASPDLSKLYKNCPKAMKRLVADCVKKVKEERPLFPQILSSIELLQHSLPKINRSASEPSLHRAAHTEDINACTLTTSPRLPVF

[8] = molecular target: Cyclin-dependent kinase 16 (Homo sapiens) (UniProt Q00536); details: at 10 µM
[9] = molecular target: T1, Tyrosine-protein kinase ZAP-70 (Homo sapiens) (UniProt P43403); assay: Selectivity interaction (Kinase panel (KiNativ target engagement assay in Jurkat cells)) EUB0001635a ZAP70; type: cell-based; details: at 1 µM
T1 sequence (whole entry): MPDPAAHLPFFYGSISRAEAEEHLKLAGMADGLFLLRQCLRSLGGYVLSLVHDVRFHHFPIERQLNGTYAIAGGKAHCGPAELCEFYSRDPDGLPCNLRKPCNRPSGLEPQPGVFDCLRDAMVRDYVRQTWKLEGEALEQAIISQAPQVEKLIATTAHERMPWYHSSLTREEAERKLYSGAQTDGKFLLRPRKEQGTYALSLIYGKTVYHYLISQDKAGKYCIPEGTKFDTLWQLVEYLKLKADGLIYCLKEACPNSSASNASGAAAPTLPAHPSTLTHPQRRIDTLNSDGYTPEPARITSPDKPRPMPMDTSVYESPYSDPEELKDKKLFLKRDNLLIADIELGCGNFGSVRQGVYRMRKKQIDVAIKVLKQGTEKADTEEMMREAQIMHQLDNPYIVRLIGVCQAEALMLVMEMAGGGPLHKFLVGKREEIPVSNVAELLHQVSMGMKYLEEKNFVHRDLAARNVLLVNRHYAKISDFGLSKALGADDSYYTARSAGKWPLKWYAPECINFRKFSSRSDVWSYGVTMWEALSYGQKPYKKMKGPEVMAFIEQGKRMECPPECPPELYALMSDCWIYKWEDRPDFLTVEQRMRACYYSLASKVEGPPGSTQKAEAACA

[10] = molecular target: Phosphatidylinositol 4-kinase beta (Homo sapiens, UniProt Q9UBF8); assay: Selectivity interaction (Enzyme panel (AstraZeneca, AlphaScreen, functional assay)) EUB0000621a PI4KB
[11] = molecular target: Rho-associated protein kinase 1 (Homo sapiens) (UniProt Q13464); details: at 10 µM
[12] = molecular target: Receptor-type tyrosine-protein kinase FLT3 (Homo sapiens) (UniProt P36888); assay: Selectivity interaction (Kinase panel (Invitrogen)) EUB0000639a FLT3; details: at 200 nM
[13] = molecular target: T2, Phosphorylase b kinase gamma catalytic chain, liver/testis isoform (Homo sapiens) (UniProt P15735); assay: Selectivity interaction (KinomeScan (DiscoverX)) EUB0000229b PHKG2; details: at 10 µM
T2 sequence (whole entry): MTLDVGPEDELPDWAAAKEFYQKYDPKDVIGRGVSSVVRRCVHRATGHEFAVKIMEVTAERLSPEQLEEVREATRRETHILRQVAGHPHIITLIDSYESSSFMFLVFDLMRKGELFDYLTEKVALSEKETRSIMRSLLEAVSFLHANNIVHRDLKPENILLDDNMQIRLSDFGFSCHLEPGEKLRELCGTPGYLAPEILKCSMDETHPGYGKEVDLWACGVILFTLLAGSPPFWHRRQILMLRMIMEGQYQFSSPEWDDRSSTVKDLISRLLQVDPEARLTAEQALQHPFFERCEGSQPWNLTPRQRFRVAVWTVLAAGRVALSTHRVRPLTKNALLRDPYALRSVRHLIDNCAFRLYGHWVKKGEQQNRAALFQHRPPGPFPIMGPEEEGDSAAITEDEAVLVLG

[14] = molecular target: Serine/threonine-protein kinase WNK3 (Homo sapiens) (UniProt Q9BYP7); assay: Selectivity interaction (ProQinase) EUB0000171b WNK3
Sequence of Serine/threonine-protein kinase WNK3 (Homo sapiens) (Q9BYP7 whole entry): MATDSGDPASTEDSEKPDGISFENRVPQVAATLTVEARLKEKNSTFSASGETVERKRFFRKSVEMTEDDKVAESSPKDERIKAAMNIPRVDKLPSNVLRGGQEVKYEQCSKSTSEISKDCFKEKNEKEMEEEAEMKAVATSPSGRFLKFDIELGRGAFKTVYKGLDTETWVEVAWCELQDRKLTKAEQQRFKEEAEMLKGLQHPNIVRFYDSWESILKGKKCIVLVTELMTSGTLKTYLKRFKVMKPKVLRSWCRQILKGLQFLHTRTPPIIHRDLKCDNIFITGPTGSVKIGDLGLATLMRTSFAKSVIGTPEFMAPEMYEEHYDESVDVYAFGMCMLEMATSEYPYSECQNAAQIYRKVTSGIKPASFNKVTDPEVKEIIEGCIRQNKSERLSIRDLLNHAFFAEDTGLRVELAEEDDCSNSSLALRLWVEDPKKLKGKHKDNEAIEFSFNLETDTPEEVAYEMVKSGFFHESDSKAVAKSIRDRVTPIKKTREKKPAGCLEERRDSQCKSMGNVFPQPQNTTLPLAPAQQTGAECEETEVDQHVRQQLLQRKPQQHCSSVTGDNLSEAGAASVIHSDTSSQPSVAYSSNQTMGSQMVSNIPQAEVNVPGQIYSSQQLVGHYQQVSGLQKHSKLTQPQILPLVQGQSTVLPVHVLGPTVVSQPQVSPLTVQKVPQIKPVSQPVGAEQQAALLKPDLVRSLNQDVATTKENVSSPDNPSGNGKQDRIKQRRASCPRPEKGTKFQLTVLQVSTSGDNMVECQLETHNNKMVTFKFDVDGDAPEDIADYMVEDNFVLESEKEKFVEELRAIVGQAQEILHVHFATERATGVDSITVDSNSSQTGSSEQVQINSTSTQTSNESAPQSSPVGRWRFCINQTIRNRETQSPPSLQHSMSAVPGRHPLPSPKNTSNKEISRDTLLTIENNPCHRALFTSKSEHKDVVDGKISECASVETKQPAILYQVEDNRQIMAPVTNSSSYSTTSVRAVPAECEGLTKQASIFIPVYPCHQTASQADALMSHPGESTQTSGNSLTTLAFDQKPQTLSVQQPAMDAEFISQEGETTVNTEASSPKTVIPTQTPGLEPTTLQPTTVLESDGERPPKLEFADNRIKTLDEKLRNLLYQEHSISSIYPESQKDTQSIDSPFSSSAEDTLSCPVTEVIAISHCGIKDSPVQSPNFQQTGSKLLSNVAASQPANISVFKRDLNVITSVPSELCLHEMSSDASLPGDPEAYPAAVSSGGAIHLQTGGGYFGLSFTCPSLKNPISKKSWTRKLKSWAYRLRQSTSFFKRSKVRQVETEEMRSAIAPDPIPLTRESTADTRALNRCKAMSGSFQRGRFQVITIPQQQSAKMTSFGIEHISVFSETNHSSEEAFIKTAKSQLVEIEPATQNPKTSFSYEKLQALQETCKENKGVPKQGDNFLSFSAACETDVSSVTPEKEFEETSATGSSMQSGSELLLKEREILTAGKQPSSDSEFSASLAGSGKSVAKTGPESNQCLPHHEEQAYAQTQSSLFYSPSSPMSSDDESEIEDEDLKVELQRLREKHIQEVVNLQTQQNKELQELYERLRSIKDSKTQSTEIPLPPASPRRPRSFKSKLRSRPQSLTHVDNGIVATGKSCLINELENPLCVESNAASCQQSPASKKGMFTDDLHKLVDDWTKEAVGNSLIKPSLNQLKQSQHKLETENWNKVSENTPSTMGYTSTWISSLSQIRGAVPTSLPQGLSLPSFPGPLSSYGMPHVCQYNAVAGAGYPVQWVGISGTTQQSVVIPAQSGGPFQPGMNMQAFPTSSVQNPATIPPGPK

[15] = molecular target: Homeodomain-interacting protein kinase 3 (Homo sapiens, UniProt Q9H422); assay: Selectivity interaction (KinomeScan (DiscoverX)) EUB0001049a HIPK3; details: at 1 µM
Sequence of Homeodomain-interacting protein kinase 3 (Q9H422 whole entry, looked up): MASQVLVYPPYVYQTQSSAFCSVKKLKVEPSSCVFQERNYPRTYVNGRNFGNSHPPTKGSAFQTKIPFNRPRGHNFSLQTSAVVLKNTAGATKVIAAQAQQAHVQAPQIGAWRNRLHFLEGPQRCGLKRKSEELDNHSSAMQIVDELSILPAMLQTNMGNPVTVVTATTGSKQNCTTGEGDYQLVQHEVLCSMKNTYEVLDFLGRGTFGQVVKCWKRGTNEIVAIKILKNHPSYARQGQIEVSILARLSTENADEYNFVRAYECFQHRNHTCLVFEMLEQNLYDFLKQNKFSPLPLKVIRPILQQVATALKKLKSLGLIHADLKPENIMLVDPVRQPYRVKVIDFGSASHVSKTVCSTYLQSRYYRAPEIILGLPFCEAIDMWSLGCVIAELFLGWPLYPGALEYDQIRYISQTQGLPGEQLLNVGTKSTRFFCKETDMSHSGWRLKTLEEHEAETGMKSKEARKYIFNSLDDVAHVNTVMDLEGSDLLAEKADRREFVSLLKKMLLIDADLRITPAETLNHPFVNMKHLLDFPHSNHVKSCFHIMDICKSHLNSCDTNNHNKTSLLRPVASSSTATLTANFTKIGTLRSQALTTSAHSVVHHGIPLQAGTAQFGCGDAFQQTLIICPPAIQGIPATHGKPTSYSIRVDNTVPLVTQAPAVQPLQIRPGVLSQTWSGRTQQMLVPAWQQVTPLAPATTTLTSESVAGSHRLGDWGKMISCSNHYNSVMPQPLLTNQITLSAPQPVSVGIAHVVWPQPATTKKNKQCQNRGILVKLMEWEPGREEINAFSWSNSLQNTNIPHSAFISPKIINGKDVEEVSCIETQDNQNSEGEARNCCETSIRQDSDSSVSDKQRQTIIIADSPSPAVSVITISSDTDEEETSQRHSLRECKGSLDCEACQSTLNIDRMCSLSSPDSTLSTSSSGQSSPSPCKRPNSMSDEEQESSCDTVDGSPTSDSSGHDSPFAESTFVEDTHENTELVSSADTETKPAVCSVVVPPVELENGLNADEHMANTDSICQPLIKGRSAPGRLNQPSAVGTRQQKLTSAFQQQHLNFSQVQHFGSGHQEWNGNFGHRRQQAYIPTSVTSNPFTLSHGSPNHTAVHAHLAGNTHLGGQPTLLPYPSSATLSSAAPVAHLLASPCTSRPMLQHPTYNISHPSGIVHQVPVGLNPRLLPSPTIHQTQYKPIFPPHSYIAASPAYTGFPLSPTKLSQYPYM

[16] = molecular target: Ribosomal protein S6 kinase alpha-5 (Homo sapiens) (UniProt O75582); assay: Selectivity interaction (KinomeScan (DiscoverX)) EUB0001049a RPS6KA5; details: at 1 µM
[17] = molecular target: T3, Muscarinic acetylcholine receptor M2 (Homo sapiens) (UniProt P08172); assay: Selectivity interaction (Panel of kinases, GPCRs, ion channels and transporters (enzymatic assay)) EUB0000223bCl CHRM2
T3 sequence (whole entry): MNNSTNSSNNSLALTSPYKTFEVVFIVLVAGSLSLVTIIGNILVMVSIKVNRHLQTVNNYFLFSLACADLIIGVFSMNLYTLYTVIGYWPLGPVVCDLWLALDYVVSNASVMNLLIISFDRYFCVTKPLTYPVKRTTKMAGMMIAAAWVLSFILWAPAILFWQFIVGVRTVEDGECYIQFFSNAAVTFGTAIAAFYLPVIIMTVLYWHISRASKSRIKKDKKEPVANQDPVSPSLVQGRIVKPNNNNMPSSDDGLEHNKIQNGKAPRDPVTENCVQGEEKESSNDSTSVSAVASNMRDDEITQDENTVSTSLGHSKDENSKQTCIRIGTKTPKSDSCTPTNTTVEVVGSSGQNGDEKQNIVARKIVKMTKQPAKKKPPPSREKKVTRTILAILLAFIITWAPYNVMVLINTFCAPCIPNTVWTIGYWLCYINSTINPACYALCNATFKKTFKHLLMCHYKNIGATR

[18] = molecular target: Cannabinoid receptor 2 (Homo sapiens) (UniProt P34972); assay: Selectivity interaction (Panel of kinases, GPCRs, ion channels and transporters (enzymatic assay)) EUB0000266bCl CNR2
[19] = molecular target: Non-receptor tyrosine-protein kinase TYK2 (Homo sapiens, UniProt P29597); assay: Selectivity interaction (KinomeScan (DiscoverX)) EUB0000695a TYK2; details: at 100 nM

Sequence of Vascular endothelial growth factor receptor 1 (Homo sapiens) (P17948 whole entry): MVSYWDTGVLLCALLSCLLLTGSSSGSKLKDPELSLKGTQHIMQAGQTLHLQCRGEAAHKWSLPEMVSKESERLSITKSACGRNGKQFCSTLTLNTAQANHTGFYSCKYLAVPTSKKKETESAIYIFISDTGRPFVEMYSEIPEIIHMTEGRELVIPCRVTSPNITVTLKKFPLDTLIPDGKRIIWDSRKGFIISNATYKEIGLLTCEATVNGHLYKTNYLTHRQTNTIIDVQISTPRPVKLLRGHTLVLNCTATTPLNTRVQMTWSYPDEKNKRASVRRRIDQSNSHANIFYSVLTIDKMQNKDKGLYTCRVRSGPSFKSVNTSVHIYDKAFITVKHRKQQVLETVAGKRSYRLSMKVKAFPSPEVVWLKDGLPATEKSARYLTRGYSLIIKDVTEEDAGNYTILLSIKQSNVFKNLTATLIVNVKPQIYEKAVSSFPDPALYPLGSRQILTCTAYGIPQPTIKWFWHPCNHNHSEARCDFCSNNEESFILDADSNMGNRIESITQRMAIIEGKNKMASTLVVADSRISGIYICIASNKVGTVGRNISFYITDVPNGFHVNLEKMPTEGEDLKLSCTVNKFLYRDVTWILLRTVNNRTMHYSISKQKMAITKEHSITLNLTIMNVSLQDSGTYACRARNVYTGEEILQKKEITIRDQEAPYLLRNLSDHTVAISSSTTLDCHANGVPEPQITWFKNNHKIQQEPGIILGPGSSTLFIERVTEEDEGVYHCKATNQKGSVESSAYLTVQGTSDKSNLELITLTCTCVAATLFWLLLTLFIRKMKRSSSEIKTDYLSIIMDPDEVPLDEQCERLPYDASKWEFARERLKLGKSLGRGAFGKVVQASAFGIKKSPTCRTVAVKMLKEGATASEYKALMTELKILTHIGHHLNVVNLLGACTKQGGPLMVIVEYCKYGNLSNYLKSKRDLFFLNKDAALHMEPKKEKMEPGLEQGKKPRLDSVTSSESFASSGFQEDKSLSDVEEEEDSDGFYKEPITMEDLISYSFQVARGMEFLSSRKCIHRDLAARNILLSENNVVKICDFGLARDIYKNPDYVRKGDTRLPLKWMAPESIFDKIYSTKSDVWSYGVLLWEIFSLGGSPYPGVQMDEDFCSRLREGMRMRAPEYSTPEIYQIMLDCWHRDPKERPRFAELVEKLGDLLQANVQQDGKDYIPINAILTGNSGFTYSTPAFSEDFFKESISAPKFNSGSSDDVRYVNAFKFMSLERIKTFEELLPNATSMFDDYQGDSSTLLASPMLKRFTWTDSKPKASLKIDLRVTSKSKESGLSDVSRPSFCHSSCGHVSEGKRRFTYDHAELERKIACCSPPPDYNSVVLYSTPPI

% of control [1]: 8%
Structure (SMILES): CCN(CC)CCCCNc1ncc2cc(-c3cc(OC)cc(OC)c3)c(NC(=O)NC(C)(C)C)nc2n1

dTM [2]: -0.8 K
Structure (SMILES): CN(C(=O)c1cnn2cccnc12)c1cc2c(cc1N1CCOCC1)C(=O)N(C[C@@H](F)C(C)(C)O)C2

Structure (SMILES): CN(C)CCOc1ccc(-c2nc(-c3ccncc3)c(-c3ccc4c(c3)CC/C4=N\O)[nH]2)cc1
% of control [3]: 100%

Structure (SMILES): O[C@H]1CC[C@H](Nc2ncc3nc(Nc4c(F)cc(F)cc4F)n([C@H]4CCOC4)c3n2)CC1
% of control [4]: 0%

Structure (SMILES): N#Cc1cccc(-c2c[nH]c3ncnc(N4CCOCC4)c23)c1
% of inhibition [5]: 1%

Structure (SMILES): CC(C)(O)[C@H](F)CN1Cc2cc(NC(=O)c3cnn4cccnc34)c(N3CCOCC3)cc2C1=O
dTM [6]: 0.9 K

Structure (SMILES): C=CC(=O)Nc1cc(-n2c(=O)ccc3cnc4ccc(-c5ccc(NS(C)(=O)=O)cc5)cc4c32)ccc1C
% of control ([7]; at 1 µM): 100%
% of control ([7]; at 10 µM): 100%

Structure (SMILES): COCC(=O)NC/C=C/c1ccc2ncnc(Nc3ccc(Oc4ccc(C)nc4)c(C)c3)c2c1 [CP-724714]
% of control [8]: 74%

Structure (SMILES): C=CC(=O)Nc1ccc(C(=O)Nc2[nH]nc3c2CN(C(=O)N[C@H](CN(C)C)c2ccccc2)C3(C)C)cc1
% of engagement ([9]; Selectivity number of off-targets 0.0, Selectivity number of targets 233.0, Source Knowledge https://www.sciencedirect.com/science/article/pii/S2451945619300674?via%3Dihub): -13.8%
% of engagement [9]: -8.5%

Structure (SMILES): Cc1cc([C@@H](C)Nc2ccccc2C(=O)O)c2nc(N3CCOCC3)cc(=O)n2c1 [AZD-6482]
IC50 [10]: 10 nM
% of control [11]: 73%

% of inhibition [12]: 9.68%
Structure (SMILES): CC[C@@H]1[C@H](F)C(=O)N[C@@H]1COc1nccc2cc(C(N)=O)c(OC)cc12 [ZIMLOVISERTIB]

Structure (SMILES): COc1cc(N(C)c2ccnc3ccc(C(F)(F)F)cc23)cc(OC)c1OC
% binding [13]: 85%

% of control ([14]; at 1 µM): 79%
% of control ([14]; at 5 µM): 67%
Structure (SMILES): C=CC(=O)Nc1cccc(C(=O)Nc2ccc(Nc3cc(-c4[nH]c(SC)nc4C)ccn3)cc2)c1

Structure (SMILES): COc1cc(Nc2nc(C)cc(-c3cnn4nc(OC)ccc34)n2)cc(C(F)(F)F)c1
% of control [15]: 95%
% of control [16]: 95%

Structure (SMILES): COc1cc(C(=O)N2CC[C@@H](O)[C@@H](N)C2)cc2nc(-c3cc4ccccc4n3CC3CC3)n(C)c12
pXC50 [17]: < 4.8 M

pXC50 [18]: < 4 M
Structure (SMILES): CCn1c(-c2nc3cc(C(=O)N4CCCC(N)C4)ccc3n2C)cc2ccccc21 (configuration not stated)

Structure (SMILES): Cc1cc(F)c(C(=O)Nc2cccc(-c3nncn3C(C)C)n2)cc1-n1cnc(C2CC2)c1
% of control [19]: 81%
